Data on 27 compounds can be found in US20240018145A1, “[…]-DEPENDENT EN[…] TREATING OR […]” (priority 2020, published 2024).

For this assay, the system named is FLU A (PR/8/34). Put plainly: Flu A Neuraminidase Antiviral Assay. In kind it is cell-based.

SMILES strings stand for the structures. Where two headings read alike, the source gives them in different places.

In the case of `CN1C(=O)c2c(O)c(=O)ccn2N2C1CCC1(CC(F)(F)C1)C2c1ccccc1` (single isomer, unassigned) [Compound 74B, 3,3-difluoro-7′-hydroxy-5′-methyl-1′-phenyl-3′,4′,4a′,5′-tetrahydro-1′H-spiro[cyclobutane-1,2′-dipyrido[1,2-b:2′,1′-f][1,2,4]triazine]-6′,8′-dione], a half-maximal response (EC50) required 15.7 nM.
Same read-out and setting: the value for `CN1C(=O)c2c(O)c(=O)ccn2N2C(c3ccccc3)C(CCC3CC3)CCC12` (single isomer, unassigned) [Compound 115B, 2-(2-cyclopropylethyl)-7-hydroxy-5-methyl-1-phenyl-1,2,3,4,4a,5-hexahydrodipyrido[1,2-b:2′,1′-f][1,2,4]triazine-6,8-dione] was more than 8100 nM.
The compound `CN1C(=O)c2c(O)c(=O)ccn2N2C1CCC1(CCC(F)(F)CC1)C2c1ccccc1` (single isomer, unassigned) [Compound 72B, 4,4-difluoro-7′-hydroxy-5′-methyl-1′-phenyl-3′,4′,4a′,5′-tetrahydro-1′H-spiro[cyclohexane-1,2′-dipyrido[1,2-b:2′,1′-f][1,2,4]triazine]-6′,8′-dione] registered a concentration giving a half-maximal response (EC50) of 3.8 nM.
`CN1C(=O)c2c(O)c(=O)ccn2N2C(c3ccccc3)C(CC(F)F)CCC12` (single isomer, unassigned) [Compound 129C, 2-(2,2-difluoroethyl)-7-hydroxy-5-methyl-1-phenyl-1,2,3,4,4a,5-hexahydrodipyrido[1,2-b:2′,1′-f][1,2,4]triazine-6,8-dione] showed a half-maximal effective concentration (EC50) of 6.6 nM.
In turn, `CN1C(=O)c2c(O)c(=O)ccn2N2C(c3ccccc3)CCCCC12` (single isomer, unassigned) [Compound 57A, 4-hydroxy-6-methyl-11-phenyl-6a,7,8,9,10,11-hexahydro-3H-pyrido[1′,2′:1,6][1,2,4]triazino[2,3-a]azepine-3,5(6H)-dione] registered an EC50 of 95.5 nM.
Take `CN1C(=O)c2c(O)c(=O)ccn2N2C1CCC(O)C2(C)c1ccccc1` (stereo not drawn) [Compound 137D, 2,7-dihydroxy-1,5-dimethyl-1-phenyl-1,2,3,4,4a,5-hexahydrodipyrido[1,2-b:2′,1′-f][1,2,4]triazine-6,8-dione]: the EC50 was 49.3 nM.
For `CN1C(=O)c2c(O)c(=O)ccn2N2C1CCCC2(C)c1ccccc1Cl` (single isomer, unassigned) [Compound 20B, 1-(2-chlorophenyl)-7-hydroxy-1,5-dimethyl-1,2,3,4,4a,5-hexahydrodipyrido[1,2-b:2′,1′-f][1,2,4]triazine-6,8-dione], the concentration for a half-maximal effect (EC50) was 4.6 nM.
In turn, `CN1C(=O)c2c(O)c(=O)ccn2N2C(c3c(F)cccc3F)C(CC(F)(F)F)CCC12` (single isomer, unassigned) [Compound 123A, 1-(2,6-difluorophenyl)-7-hydroxy-5-methyl-2-(2,2,2-trifluoroethyl)-1,2,3,4,4a,5-hexahydrodipyrido[1,2-b:2′,1′-f][1,2,4] triazine-6,8-dione] displayed a 50% effective concentration (EC50) of more than 8100 nM.
For `CN1C(=O)c2c(O)c(=O)ccn2N2C(c3ccccc3)C(CC3CC3(F)F)CCC12` (single isomer, unassigned) [Compound 114D, 2-((2,2-difluorocyclopropyl)methyl)-7-hydroxy-5-methyl-1-phenyl-1,2,3,4,4a,5-hexahydrodipyrido[1,2-b:2′,1′-f][1,2,4]triazine-6,8-dione], the 50% effective concentration (EC50) was 2.3 nM.
Consider `CN1C(=O)c2c(O)c(=O)ccn2N2C(c3ccccc3)C(CC(F)(F)F)CCC12` (single isomer, unassigned) [Compound 118A, 7-hydroxy-5-methyl-1-phenyl-2-(2,2,2-trifluoroethyl)-1,2,3,4,4a,5-hexahydrodipyrido[1,2-b:2′,1′-f][1,2,4]triazine-6,8-dione], for which the concentration for a half-maximal effect (EC50) was more than 8100 nM.
Still for that read-out and setting: the value for `CC1(c2ccccc2)CCCC2N(CC(F)(F)F)C(=O)c3c(O)c(=O)ccn3N21` (single isomer, unassigned) [Compound 34A, 7-hydroxy-1-methyl-1-phenyl-5-(2,2,2-trifluoroethyl)-1,2,3,4,4a,5-hexahydrodipyrido[1,2-b:2′,1′-f][1,2,4]triazine-6,8-dione] was 3090 nM.
Same read-out and setting: the value for `CN1C(=O)c2c(O)c(=O)ccn2N2C1CCCC2(C)c1ncc(F)cc1F` (single isomer, unassigned) [Compound 46B, 1-(3,5-difluoropyridin-2-yl)-7-hydroxy-1,5-dimethyl-1,2,3,4,4a,5-hexahydrodipyrido[1,2-b:2′,1′-f][1,2,4]triazine-6,8-dione] was more than 8100 nM; that for `Cc1ccccc1C1N2C(CCC13CCC(F)(F)CC3)N(C)C(=O)c1c(O)c(=O)ccn12` (single isomer, unassigned) [Compound 70A, 4,4-difluoro-7′-hydroxy-5′-methyl-1′-(o-tolyl)-3′,4′,4a′,5′-tetrahydro-1′H-spiro[cyclohexane-1,2′dipyrido[1,2-b:2′,1′-f][1,2,4]triazine]-6′,8′-dione] was 299 nM; that for `CN1C(=O)c2c(O)c(=O)ccn2N2C1CCC1(CCC(F)(F)C1)C2c1ccccc1` (single isomer, unassigned) [Compound 68D, 3,3-difluoro-7′-hydroxy-5′-methyl-1′-phenyl-3′,4′,4a′,5′-tetrahydro-1′H-spiro[cyclopentane-1,2′-dipyrido[1,2-b:2′,1′-f][1,2,4]triazine]-6′,8′-dione] was 11.8 nM.
On to `CN1C(=O)c2c(O)c(=O)ccn2N2C(c3ccccc3)C(CC(C)(F)F)CCC12` (single isomer, unassigned) [Compound 126B, 2-(2,2-difluoropropyl)-7-hydroxy-5-methyl-1-phenyl-1,2,3,4,4a,5-hexahydrodipyrido[1,2-b:2′,1′-f][1,2,4]triazine-6,8-dione], for which a half-maximal effect (EC50) was put at 16.1 nM.
In the case of `CC1CCC2N(C)C(=O)c3c(O)c(=O)ccn3N2C1(C)c1ccccc1` (single isomer, unassigned) [Compound 29A, 7-hydroxy-1,2,5-trimethyl-1-phenyl-1,2,3,4,4a,5-hexahydrodipyrido[1,2-b:2′,1′-f][1,2,4]triazine-6,8-dione], it took 1860 nM to reach a half-maximal effect (EC50).
The compound `CN1C(=O)c2c(O)c(=O)ccn2N2C1CCC1(CC(F)(F)C1)C2c1ccccc1` (single isomer, unassigned) [Compound 74C, 3,3-difluoro-7′-hydroxy-5′-methyl-1′-phenyl-3′,4′,4a′,5′-tetrahydro-1′H-spiro[cyclobutane-1,2′-dipyrido[1,2-b:2′,1′-f][1,2,4]triazine]-6′,8′-dione] had a concentration for a half-maximal effect (EC50) of 32.5 nM.
On to `CN1C(=O)c2c(O)c(=O)ccn2N2C(c3ccccc3)C(CC(F)(F)F)CCC12C` (single isomer, unassigned) [Compound 111B, 7-hydroxy-4a,5-dimethyl-1-phenyl-2-(2,2,2-trifluoroethyl)-1,2,3,4,4a,5-hexahydrodipyrido[1,2-b:2′,1′-f][1,2,4]triazine-6,8-dione], for which it took 3.3 nM to reach a half-maximal effect (EC50).
With `CN1C(=O)c2c(O)c(=O)ccn2N2C1CCC(C)(C)C2(C)c1ccccc1` (single isomer, unassigned) [Compound 35A, 7-hydroxy-1,2,2,5-tetramethyl-1-phenyl-1,2,3,4,4a,5-hexahydrodipyrido[1,2-b:2′,1′-f][1,2,4]triazine-6,8-dione], a half-maximal response (EC50) required 138 nM.
With `CN1C(=O)c2c(O)c(=O)ccn2N2C(c3ccccc3)C(C3CC3(F)F)CCC12` (single isomer, unassigned) [Compound 105A, 2-(2,2-difluorocyclopropyl)-7-hydroxy-5-methyl-1-phenyl-1,2,3,4,4a,5-hexahydrodipyrido[1,2-b:2′,1′-f][1,2,4]triazine-6,8-dione], where the note is “MDCK, 48 h”, the response was half-maximal at 413 nM (EC50).
In turn, `CS[C@H]1CC[C@@H](c2ccccc2)N2[C@@H]1N(C)C(=O)c1c(O)c(=O)ccn12` [Compound 147, (1S,4S,4aS)-7-hydroxy-5-methyl-4-(methylthio)-1-phenyl-1,2,3,4,4a,5-hexahydrodipyrido[1,2-b:2′,1′-f][1,2,4]triazine-6,8-dione] gave an EC50 (MDCK, 48 h) of 16.8 nM.
The compound `CN1C(=O)c2c(O)c(=O)ccn2N2C1CCC(C)(CC(F)(F)F)C2c1ccccc1` (single isomer, unassigned) [Compound 71A, 7-hydroxy-2,5-dimethyl-1-phenyl-2-(2,2,2-trifluoroethyl)-1,2,3,4,4a,5-hexahydrodipyrido[1,2-b:2′,1′-f][1,2,4]triazine-6,8-dione] registered a concentration for a half-maximal effect (EC50) of 5910 nM.
On the same count and under the same terms, the value for `CN1C(=O)c2c(O)c(=O)ccn2N2C(c3cccc(F)c3)CCCC12` (single isomer, unassigned) [Compound 10A, 1-(3-fluorophenyl)-7-hydroxy-5-methyl-1,2,3,4,4a,5-hexahydrodipyrido[1,2-b:2′,1′-f][1,2,4]triazine-6,8-dione] was 1610 nM; that for `CN1C(=O)c2c(O)c(=O)ccn2N2C(c3c(F)cccc3F)C(CC(F)(F)F)CCC12` (single isomer, unassigned) [Compound 123B, 1-(2,6-difluorophenyl)-7-hydroxy-5-methyl-2-(2,2,2-trifluoroethyl)-1,2,3,4,4a,5-hexahydrodipyrido[1,2-b:2′,1′-f][1,2,4] triazine-6,8-dione] was 4.2 nM.
In turn, `CCN1C(=O)c2c(O)c(=O)cc(COC)n2N2C(c3ccccc3)C(CC(F)(F)F)CCC12` (stereo not drawn) [Compound 131F, 5-ethyl-7-hydroxy-10-(methoxymethyl)-1-phenyl-2-(2,2,2-trifluoroethyl)-1,2,3,4,4a,5-hexahydrodipyrido[1,2-b:2′,1′-f][1,2,4]triazine-6,8-dione] displayed a concentration giving a half-maximal response (EC50) of 12.5 nM.
Consider `CN1C(=O)c2c(O)c(=O)ccn2N2C(c3ccccc3C3CC3)C(CC(F)(F)F)CCC12` (single isomer, unassigned) [Compound 107A, 1-(2-cyclopropylphenyl)-7-hydroxy-5-methyl-2-(2,2,2-trifluoroethyl)-1,2,3,4,4a,5-hexahydrodipyrido[1,2-b:2′,1′-f][1,2,4]triazine-6,8-dione], for which the EC50 is 4800 nM.
The compound `CC1CCC2N(C)C(=O)c3c(O)c(=O)ccn3N2C1(C)c1ccccc1` (single isomer, unassigned) [Compound 29B, 7-hydroxy-1,2,5-trimethyl-1-phenyl-1,2,3,4,4a,5-hexahydrodipyrido[1,2-b:2′,1′-f][1,2,4]triazine-6,8-dione] displayed a concentration giving a half-maximal response (EC50) of 286 nM.
